What is called IC50 is the concentration that inhibits the measured activity by half. As usually defined, the Km is the substrate concentration at which the rate is half of its maximum. As usually defined, the kcat is the maximal rate divided by the concentration of active sites. One may read the kcat/Km as the turnover number divided by the Michaelis constant.

Here are results for six molecules from PMC4519324, “Substrate Specificity, Inhibitor Selectivity and Structure-Function Relationships of Aldo-Keto Reductase 1B15: A Novel Human Retinaldehyde Reductase” (PLoS ONE, 2015).

Like-named read-outs stand apart in the source and are kept apart here.

Data set [1] deals with T1, AKR1B15 (Homo sapiens, UniProt C9JRZ8).
T1 construct: made in house; host or cells: E. coli BL21(DE3), with or without chaperone plasmids pBB540/pBB542
Description: Inhibition screening with D,L-glyceraldehyde as substrate. The format is biochemical. The conditions noted are these: 6 mM D,L-glyceraldehyde as substrate, 0.1% DMSO. The protocol:
(§1) Activities were determined in 100 mM sodium phosphate, pH 7.0, at 25°C, using 0.2 mM NADPH in 0.2-cm path length cuvettes, with freshly prepared substrate solutions. One unit of activity is defined as the amount of enzyme required to transform 1 μmol of substrate per min at 25°C.
(§2) All compounds tested as inhibitors were dissolved in DMSO and assayed in a final concentration of 0.1% (v/v) DMSO using 6 mM D,L-glyceraldehyde as a substrate. Kinetic constant and IC50 (compound concentration that inhibits enzymatic activity by 50%) values were calculated by fitting the initial rates to the appropriate equation using Grafit 5.0 (Eritacus Software) and values were given as the mean ± standard error of three experiments. Standard error values were less than 20% of the mean values.

In data set [2] the target is T2, AKR1B10 (Homo sapiens, UniProt O60218).
T2 construct: made in house
The conditions noted are these: cited from earlier work.

Data set [3] has as its target T3, AKR1B1 (Homo sapiens, UniProt P15121).
T3 construct: made in house
The conditions noted are these: cited from earlier work.

The target in data set [4] is T1, AKR1B15. The experiment in a line: Spectrophotometric activity assay (NADPH decrease at 340 nm), substrate kinetics. In kind it is biochemical. The following applies: 3 mM D,L-glyceraldehyde, read-out: Km (μM) for cofactor NADPH.
For data set [5], the target named is T2, AKR1B10. The data set is described as above. In kind it is biochemical. The following applies: 60 mM D,L-glyceraldehyde, read-out: Km (μM) for cofactor NADPH.
The target of data set [6] is T2, AKR1B10. The experiment in a line: NADPH binding by quenching of Trp intrinsic fluorescence. The conditions noted are these: 0.5 μM protein, 20 mM sodium phosphate, pH 7.0, 25°C, read-out: K D value for NADPH. The protocol: (§3) NADPH binding was analyzed by quenching of Trp intrinsic fluorescence of 0.5 μM protein, using a Cary Eclipse (Varian) fluorimeter, in 20 mM sodium phosphate, pH 7.0, at 25°C in a final volume of 1 mL. The excitation wavelength was 290 nm and the emission wavelength was monitored at 340 nm. AKR1B10 was used as a control. The dissociation constant (K D) values were calculated by nonlinear fitting of experimental data, using Grafit 5.0 (Eritacus Software), to the Morrison equation: ΔF=ΔFmax·[E]+[NADPH]+KD−([E]+[NADPH]+KD)^2−4·[E]·[NADPH]/2·[E]

Data set [7] has as its target T1, AKR1B15. Described as above. The conditions noted are these: 0.5 μM protein, 20 mM sodium phosphate, pH 7.0, 25°C, read-out: K D value for NADPH. The protocol: as §3
Data set [8] has as its target T3, AKR1B1. The conditions noted are these: read-out: Km (μM) for cofactor NADPH; cited from earlier work.
Data set [9] deals with T2, AKR1B10. The experiment in a line: Inhibition of enzymatic activity with D,L-glyceraldehyde as substrate. The format is biochemical. The protocol: as §1, §2
In the next data set the test system is CC(=O)CC(C)=O. The experiment in a line: Spectrophotometric activity assay (NADPH decrease at 340 nm), substrate kinetics. The format is biochemical, human. The conditions noted are these: other: AKR1B1, pH 7.0, 25.0 °C. Here is the method: as §1, §2
The test system of a further data set is CC(C)=CCC/C(C)=C/C=O. The description is as above. In kind it is biochemical, human. The conditions noted are these: other: AKR1B1, pH 7.0, 25.0 °C. Here is the method: as §1, §2
In another data set the test system is CCC(=O)CC(=O)CC. The description is as above. The format is biochemical, human. The conditions noted are these: other: AKR1B1, pH 7.0, 25.0 °C. Here is the method:
as §1, §2

T1 sequence (C9JRZ8 whole entry): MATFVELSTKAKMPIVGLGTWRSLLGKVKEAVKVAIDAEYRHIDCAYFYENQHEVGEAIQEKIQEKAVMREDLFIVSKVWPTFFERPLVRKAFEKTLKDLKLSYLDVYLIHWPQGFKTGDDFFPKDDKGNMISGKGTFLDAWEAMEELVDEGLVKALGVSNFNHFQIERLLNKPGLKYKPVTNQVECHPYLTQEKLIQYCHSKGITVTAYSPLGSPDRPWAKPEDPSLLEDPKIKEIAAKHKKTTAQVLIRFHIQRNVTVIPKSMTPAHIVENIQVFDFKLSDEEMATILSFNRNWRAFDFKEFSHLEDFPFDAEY
T2 sequence (O60218 whole entry): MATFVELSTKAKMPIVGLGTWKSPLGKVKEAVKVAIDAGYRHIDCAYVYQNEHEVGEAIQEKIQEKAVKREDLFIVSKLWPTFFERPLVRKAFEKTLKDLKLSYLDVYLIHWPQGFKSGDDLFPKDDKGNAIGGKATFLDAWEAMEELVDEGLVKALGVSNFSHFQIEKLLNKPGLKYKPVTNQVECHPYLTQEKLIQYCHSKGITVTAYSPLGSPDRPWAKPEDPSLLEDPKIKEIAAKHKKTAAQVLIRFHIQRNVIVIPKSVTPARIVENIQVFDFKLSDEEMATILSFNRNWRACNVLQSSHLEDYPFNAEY

For `Oc1c(F)c(F)c(-c2c(F)c(F)c(O)c(F)c2F)c(F)c1F` [JF0064, 2,2’,3,3’,5,5’,6,6’-octafluoro-4,4’-biphenyldiol], the IC50 was 0.034 ± 0.005 µM against AKR1B15 [1]; less than 10 µM at AKR1B10 [2] (AKR1B10, values in Table 3); less than 10 µM at AKR1B1 [3] (AKR1B1, values in Table 3).

As for `C[C@H](CCC(=O)O)[C@H]1CC[C@H]2[C@@H]3CC[C@@H]4C[C@H](O)CC[C@]4(C)[C@H]3CC[C@]12C` [Lithocholic acid], the IC50 on AKR1B15 [1] is 16.3 ± 7.6 µM; on AKR1B10 [2] (AKR1B10), 0.12 µM; on AKR1B1 [3] (AKR1B1), 7.2 µM. Further, the “selectivity between AKR1B10 and AKR1B1” value on AKR1B10 [2] (in words) is “more selective against AKR1B10”.

With `NC(=O)C1=CN([C@@H]2O[C@H](COP(=O)(O)OP(=O)(O)OC[C@H]3O[C@@H](n4cnc5c(N)ncnc54)[C@H](OP(=O)(O)O)[C@@H]3O)[C@@H](O)[C@H]2O)C=CC1` [NADPH], the figures for the Km at AKR1B15 [4], at AKR1B10 [5] and at AKR1B1 [8] were 5.7 µM, 10 µM and 2.9 µM, respectively. Moreover, the values for the Kd at AKR1B10 [6] and at AKR1B15 [7] were 0.092 ± 0.035 µM and 0.113 ± 0.009 µM, respectively.

Take `CC1=C(CC(=O)O)c2cc(F)ccc2/C1=C\c1ccc([S+](C)[O-])cc1` (stereo not drawn) [Sulindac]: the IC50 is more than 100 µM on AKR1B15 [1]; less than 10 µM at AKR1B10 [2] (AKR1B10, values in Table 3); less than 10 µM at AKR1B1 [3] (AKR1B1, values in Table 3).

Consider `COc1ccc2c(C(=S)N(C)CC(=O)O)cccc2c1C(F)(F)F` [Tolrestat], for which the IC50 was more than 100 µM on AKR1B15 [1]; 0.006 µM at AKR1B10 [9]; less than 10 µM on AKR1B10 [2] (AKR1B10, values in Table 3).

For the molecule AKR1B1 (Homo sapiens), the Km is 8,100 μM with CC(=O)CC(C)=O, 35 µM in the data set on CC(C)=CCC/C(C)=C/C=O and 12,000 μM in the data set with CCC(=O)CC(=O)CC. The results for the kcat in the data set with CC(=O)CC(C)=O, in the data set on CC(C)=CCC/C(C)=C/C=O and in the data set with CCC(=O)CC(=O)CC were 0.278 s⁻¹, 1.13 s⁻¹ and 0.433 s⁻¹, respectively. For the same molecule, the values for the kcat/Km with CC(=O)CC(C)=O, in the data set with CC(C)=CCC/C(C)=C/C=O and in the data set with CCC(=O)CC(=O)CC were 36.7 M⁻¹ s⁻¹, 29200 M⁻¹ s⁻¹ and 36.7 M⁻¹ s⁻¹, respectively.
